Read-outs that look alike come from different tables or passages of the source.

Ki, IC50 and clearance data for 21 molecules are collected here from patent publication US20120165319A1, “INHIBITORS OF INTERLEUKIN-1 BETA CONVERTING ENZYME” (VERTEX PHARMACEUTICALS INCORPORATED, priority 1995, published 2012).

Data set [1] deals with T1, ICE (Homo sapiens, UniProt P29466).
T1 sequence (P29466 120-297 limits assumed): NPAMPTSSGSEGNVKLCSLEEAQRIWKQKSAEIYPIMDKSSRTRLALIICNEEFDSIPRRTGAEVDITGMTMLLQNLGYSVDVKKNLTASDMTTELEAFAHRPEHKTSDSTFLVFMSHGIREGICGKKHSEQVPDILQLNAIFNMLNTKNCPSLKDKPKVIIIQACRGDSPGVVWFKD
T1 sequence (P29466 317-404 limits assumed): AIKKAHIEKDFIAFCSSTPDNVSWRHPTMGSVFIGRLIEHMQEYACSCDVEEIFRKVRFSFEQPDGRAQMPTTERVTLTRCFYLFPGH
The data set can be described thus: Enzyme assay with UV-visible substrate (visible ICE assay, Succinyl-Tyr-Val-Ala-Asp-pNitroanilide). Format: biochemical. The method in brief:
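Colorimetric caspase-1 activity: 15 min enzyme-inhibitor preincubation (RT), then Suc-Tyr-Val-Ala-Asp-pNA; 405-603 nm kinetics, 20 min, 37° C. Ki from rate fitting.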

The subject of data set [2] is IL-1β, human whole blood. The data set can be described thus: Whole blood assay for IL-1β production. Format: cell-based. The following applies: read-out: Whole human blood IC50. In short, it runs like this: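 IL-1β was quantified by ELISA in plasma diluted 1:200. The plasma came from EDTA-anticoagulated human whole blood incubated at 30 °C for 16-18 h with LPS (final 5.0 ng/ml) plus a saline serial dilution of compound. Controls were no-LPS, no-inhibitor and highest-vehicle.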

Data set [3] is described as follows: In vivo rat clearance assay. The following applies: plasma, iv. The method in brief:
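Rats cannulated a day beforehand received 10–20 mg/kg by intravenous jugular dosing in propylene glycol/saline with 100 mM sodium bicarbonate. Carotid blood was sampled from 0 to 90 min, and plasma was extracted with acetonitrile/0.1% TFA for HPLC quantification. Clearance from non-linear regression pharmacokinetic analysis.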

The mark [4] stands for this setting: Homo sapiens, * = values obtained upon reassay.
[5] abbreviates: * = values obtained upon reassay.

As a reminder, the Ki is the dissociation constant of the complex between target and ligand, obtained from inhibition or displacement. Read a high Ki as a looser hold on the target. In general, IC50 refers to the concentration that gives 50% inhibition. In general, clearance refers to a measure of how efficiently the substance is removed, as volume per time. A low value points to inefficient removal. Turning to `COCC(=O)N1C[C@H](NC(=O)c2cccc3ccccc23)C(=O)N(CC(=O)N[C@H](C=O)CC(=O)O)c2ccccc21` [Compound 2201, (3S)-3-[(3S)-2-oxo-3-(1-naphthoyl)amino-5-methoxyacetyl-2,3,4,5-tetrahydro-1H-1,5-benzodiazepine-1-acetylamino]4-oxo-butyric acid], in data set [1] (Table 5), the Ki was 0.009 µM. For the same molecule, the IC50 in data set [2] (setting [4]) stood at 3.5 µM. The clearance in data set [3] (10-20 mg/kg) came out at 60 mL/min/kg.
Consider `COCC(=O)N1C[C@H](NC(=O)c2ccccc2)C(=O)N(CC(=O)N[C@H](C=O)CC(=O)O)c2ccccc21` [Compound 605e, (3S)-3-[(3S)-2-Oxo-3-benzoylamino-5-methoxyacetyl-2,3,4,5-tetrahydro-1H-1,5-benzodiazepin-1-acetylamino]-4-oxo-butyric acid], for which the Ki in data set [1] (Table 5) was 0.029 µM. Besides, the IC50 in data set [2] (setting [4]) is over 10 µM. The same molecule displayed a clearance in data set [3] (10-20 mg/kg) of 24 mL/min/kg.
On the same counts, the results for `O=C[C@H](CC(=O)O)NC(=O)[C@@H]1CCCN2C(=O)CCN(NC(=O)c3ccc4c(c3)OCO4)C(=O)N12` [Compound 1015, [3S(4S)]3-[6,10-Dioxo-7-(3,4-methylenedioxybenzoylamino)-1,2,3,4,7,8,9,10-octahydro-6H-pyridazino[1,2-a][1,2,4]triazepine-4-carboxamido]-4-oxobutanoic acid] are 0.04 µM, 1.7 µM and 23 mL/min/kg.
For the molecule `CC(=O)Nc1ccc(C(=O)N[C@H]2CCC(=O)N3CCC[C@@H](C(=O)N[C@H](C=O)CC(=O)O)N3C2=O)cc1Cl` [Compound 214l, [3S(1S,9S)]3-(9-(3-Chloro-4-acetamidobenzoyl)amino-6,10-dioxo-1,2,3,4,7,8,9,10-octahydro-6H-pyridazino[1,2-a][1,2]diazepine-1-carboxamido)-4-oxobutanoic acid], the Ki in data set [1] (Table 17) was 0.006 µM. Moreover, the IC50 in data set [2] (Homo sapiens, Table 17) was found to be 1.1 µM. In data set [3] (Table 17), this molecule displayed a clearance of 12 mL/min/kg.
For `CN(C)c1cccc(C(=O)N[C@H]2CCC(=O)N3CCC[C@@H](C(=O)N[C@H](C=O)CC(=O)O)N3C2=O)c1` [Compound 470], in data set [1] (Table 5), the Ki turned out to be 0.005 µM. For the same molecule, the figures for the IC50 in data set [2] (setting [5]) and in data set [2] (setting [4]) were 0.5 µM and 0.36 µM, respectively. In addition, the clearance in data set [3] (10-20 mg/kg) came to 63 mL/min/kg.
In data set [1] (Table 5), `O=C[C@H](CC(=O)O)NC(=O)[C@@H]1CCCN2C(=O)CC[C@H](NC(=O)c3cccc4ccccc34)C(=O)N12` [Compound 408, [3S(1S,9S)]3-[6,10-Dioxo-9-(naphth-1-oylamino)-1,2,3,4,7,8,9,10-octahydro-6H-pyridazino[1,2-a][1,2]diazepine-1-carboxamido]-4-oxobutanoic acid] yielded a Ki of 0.0005 µM. For the same molecule, the IC50 in data set [2] (setting [4]) was determined as 1 µM. In data set [3] (10-20 mg/kg), this molecule gave a clearance of 23 mL/min/kg.
Consider `O=C[C@H](CC(=O)O)NC(=O)[C@@H]1CCCN2C(=O)CC[C@H](NC(=O)c3ccc(NC(=O)Cc4ccccc4)cc3)C(=O)N12` [Compound 486, [3S(1S,9S)]3-{6,10-Dioxo-1,2,3,4,7,8,9,10-octahydro-9-[4-(phenylacetamido)benzamido]-6H-pyridazino[1,2-a][1,2]diazepine-1-carboxamido}-4-oxobutanoic acid], for which, in data set [1] (Table 5), the Ki was found to be 0.0023 µM. Moreover, the IC50 in data set [2] (setting [4]) came to 0.5 µM. In addition, the clearance in data set [3] (10-20 mg/kg) was found to be 37 mL/min/kg.
In data set [1] (Table 17), `CC(=O)Nc1ccc(C(=O)NN2CCC(=O)N3CCC[C@@H](C(=O)N[C@H](C=O)CC(=O)O)N3C2=O)cc1` [Compound 1018, [3S(4S)]3-{7-[(4-Acetamido)benzamido]-6,10-Dioxo-1,2,3,4,7,8,9,10-octahydro-6H-pyridazino[1,2-a][1,2,4]-triazepine-4-carboxamido}-4-oxobutanoic acid] returned a Ki of 0.17 µM. The IC50 in data set [2] (Homo sapiens, Table 17) was 5.5 µM. In data set [3] (Table 17), this molecule returned a clearance of 9.1 mL/min/kg.
On the same counts, the results for `Cc1cc(C(=O)N[C@H]2CN(C(=O)CO)c3ccccc3N(CC(=O)N[C@H](C=O)CC(=O)O)C2=O)cc(C)c1O` [Compound 691a, (3S)-3-[(3S)-2-Oxo-3-(3,5-dimethyl-4-hydroxybenzoyl)amino-5-hydroxyacetyl-2,3,4,5-tetrahydro-1H-1,5-benzodiazepine-1-acetylamino]-4-oxo-butyric acid] are 0.0021 µM, 1.2 µM and 9.9 mL/min/kg.
Turning to `O=C[C@H](CC(=O)O)NC(=O)[C@@H]1CCCN2C(=O)CCN(NC(=O)c3cc4ccccc4[nH]3)C(=O)N12` [Compound 1075, [3S(4S)]3-[6,10-Dioxo-7-(indole-2-carboxamido)-1,2,3,4,7,8,9,10-octahydro-6H-pyridazino[1,2-a][1,2,4]triazepine-4-carboxamido]-4-oxobutanoic acid], in data set [1] (Table 17), the Ki was found to be 0.12 µM. Besides, the IC50 in data set [2] (Homo sapiens, Table 17) came out at 5.5 µM. For the same molecule, in data set [3] (Table 17), the clearance is 14.5 mL/min/kg.
In turn, `O=C[C@H](CC(=O)O)NC(=O)[C@@H]1CCCN2C(=O)CC[C@H](NC(=O)c3cc4ccccc4[nH]3)C(=O)N12` [Compound 475, [3S(1S,9S)]3-[6,10-Dioxo-9-(indol-2-oylamino)-1,2,3,4,7,8,9,10-octahydro-6H-pyridazino[1,2-a][1,2]diazepine-1-carboxamido]-4-oxobutanoic acid] came in with a Ki in data set [1] (Table 5) of 0.0055 µM. Besides, the IC50 amounted to 0.35 µM in data set [2] (setting [5]) and 0.4 µM in data set [2] (setting [4]). Besides, the clearance in data set [3] (10-20 mg/kg) was 21 mL/min/kg.
In data set [1] (Table 5), `CC(C)C(=O)Nc1ccc(C(=O)N[C@H]2CCC(=O)N3CCC[C@@H](C(=O)N[C@H](C=O)CC(=O)O)N3C2=O)cc1` [Compound 484] registered a Ki of 0.002 µM. Further, the IC50 in data set [2] (setting [4]) was 5 µM. The clearance in data set [3] (10-20 mg/kg) turned out to be 15 mL/min/kg.
The corresponding values for `O=C[C@H](CC(=O)O)NC(=O)[C@@H]1CCCN2C(=O)CC[C@H](NC(=O)c3ccccc3)C(=O)N12` [Compound 214e, [3S(1S,9S)]3-(9-Benzoylamino-6,10-dioxo-1,2,3,4,7,8,9,10-octahydro-6H-pyridazino[1,2-a][1,2]-diazepine-1-carboxamido)-4-oxobutanoic acid] are 0.0075 µM, 1.3 µM and 12 mL/min/kg.
The corresponding values for `O=C[C@H](CC(=O)O)NC(=O)[C@@H]1CCCN2C(=O)CC[C@H](NC(=O)c3cc4ccsc4s3)C(=O)N12` [Compound 442] are 0.0032 µM, 2 µM and 54 mL/min/kg.
With `O=C[C@H](CC(=O)O)NC(=O)[C@@H]1CCCN2C(=O)CC[C@H](NC(=O)c3ccc(Cl)cc3)C(=O)N12` [Compound 416], the affinity in data set [1] (Table 5), expressed as Ki, was 0.012 µM. Also, the IC50 in data set [2] (setting [4]) was 3.4 µM. This molecule registered a clearance in data set [3] (10-20 mg/kg) of 47 mL/min/kg.
Regarding `O=C1C[C@H](NC(=O)[C@@H]2CCCN3C(=O)CC[C@H](NC(=O)c4cccc5ccccc45)C(=O)N23)C(OCc2ccccc2)O1` (stereo partly drawn) [Compound 213v, [1S,9S(2RS,3S)]N-(2-Benzyloxy-5-oxotetrahydrofuran-3-yl)-6,10-dioxo-9-(naphth-1-oylamino)-1,2,3,4,7,8,9,10-octahydro-6H-pyridazino[1,2-a][1,2]diazepine-1-carboxamide], the Ki in data set [1] (Table 17) was 0.0005 µM. Besides, in data set [2] (Homo sapiens, Table 17), the IC50 was 1.1 µM. Moreover, in data set [3] (Table 17), the clearance amounted to 23 mL/min/kg.
`CC(C)CC(=O)Nc1ccc(C(=O)N[C@H]2CCC(=O)N3CCC[C@@H](C(=O)N[C@H](C=O)CC(=O)O)N3C2=O)cc1` [Compound 487, [3S(1S,9S)]3-{6,10-Dioxo-9-[4-(3-methylbutan-1-oylamino)benzamido]-1,2,3,4,7,8,9,10-octahydro-6H-pyridazino[1,2-a][1,2]diazepine-1-carboxamido}-4-oxobutanoic acid]: the Ki in data set [1] (Table 5) came to 0.0024 µM. Further, the IC50 in data set [2] (setting [5]) was 0.4 µM; in data set [2] (setting [4]), 0.5 µM. The clearance in data set [3] (10-20 mg/kg) worked out at 20 mL/min/kg.
In turn, `O=C[C@H](CC(=O)O)NC(=O)CN1C(=O)[C@@H](NC(=O)c2cc(Cl)c(O)c(Cl)c2)CN(C(=O)CO)c2ccccc21` [Compound 662, (3S)-3-[(3S)-2-Oxo-3-(3,5-dichloro-4-hydroxybenzoyl)amino-5-(2-hydroxy)acetyl-2,3,4,5-tetrahydro-1H-1,5-benzodiazepine-1-acetylamino]-4-oxo-butyric acid] had a Ki in data set [1] (Table 17) of 0.0005 µM. The IC50 in data set [2] (Homo sapiens, Table 17) amounted to 0.8 µM. The clearance in data set [3] (Table 17) is 2.75 mL/min/kg.
The corresponding values for `CC(=O)N1C[C@H](NC(=O)c2cc(C)c(O)c(C)c2)C(=O)N(CC(=O)N[C@H](C=O)CC(=O)O)c2ccccc21` [Compound 671, (3S)-3-[(3S)-2-Oxo-3-(3,5-dimethyl-4-hydroxybenzoyl)amino-5-acetyl-2,3,4,5-tetrahydro-1H-1,5-benzodiazepine-1-acetylamino]-4-oxo-butyric acid] are 0.005 µM, 2.5 µM and 33.2 mL/min/kg.
The corresponding values for `O=C[C@H](CC(=O)O)NC(=O)CN1C(=O)[C@@H](NC(=O)c2ccccc2)CN(C(=O)CO)c2ccccc21` [Compound 668, (3S)-3-[(3S)-2-Oxo-3-benzoylamino-5-(2-hydroxy)acetyl-2,3,4,5-tetrahydro-1H-1,5-benzodiazepine-1-acetylamino]-4-oxo-butyric acid] are 0.009 µM, 3.7 µM and 29 mL/min/kg.
In the case of `Cc1ccccc1C(=O)N[C@H]1CCC(=O)N2CCC[C@@H](C(=O)N[C@H](C=O)CC(=O)O)N2C1=O` [Compound 404], the Ki in data set [1] (Table 5) was found to be 0.0029 µM. In data set [2] (setting [4]), the IC50 is 1.1 µM. The clearance in data set [3] (10-20 mg/kg) turned out to be 24 mL/min/kg.
